Reference: patent US20080207594A1, “Use of Gsk-3 Inhibitors for Preventing and Treating Pancreatic Autoimmune Disorders” (Davelogen Aktiengesellschaft, priority 2005, published 2008)
“Also recorded” adds a separate entry of the source.

How the values were obtained:
Pax4 = Pax4 transcription in INS-1E insulinoma cells, quantitative RT-PCR; type: cell-based, rat; details: INS-1E cells; for stimulation of Pax4 transcription relative to activin A (in words): FIG. 16
Excerpt: The response of the Pax4 gene to test compounds was investigated in the rat insulinoma cell line INS-1E. INS-1E cells are known to express Pax4 and to upregulate Pax4 levels in response to the treatment with activin-A and betacellulin. In the search for novel beta cell mitogens and/or beta cell protective agents the inventors treated INS-1E cells with different test compounds.
Total RNA from 8×10^4 cells growing on 4 cm^2 surface area of a tissue culture dish was extracted using Qiagen RNAeasy kit according to the instructions of the manufacturer (Qiagen) and 2 μg was converted into cDNA. Primers for pax4, 18S RNA, and rat RNA polymerase II largest subunit (RPB1) were designed using the Primer Express 1.5 Software from Applied Biosystems and sequences can be obtained upon request. Quantitative real-time PCR was performed using Applied Biosystems SDS 7000 detection system. Amplifications from 2 independent experiments were performed in duplicate for each transcript and mean values were normalized to the mean value of the reference RNA 18S RNA.
(§1) Cells were seeded at a density of 2×10^4 cells per cm^2 6 to 8 days before the treatment with chemicals. During the growth period the medium was changed once. The cells were incubated for different periods of time with chemicals under serum-free conditions. The cells were harvested in Qiagen RNAeasy cell lysate buffer and immediately transferred to dry ice. The samples were stored at −20° C. until RNA isolation was carried out.
as §1, with “RNA easy” for “RNAeasy”, “−20 degree” for “−20° C.”

primary rat beta cells = test: In vitro beta cell proliferation assay (Ki-67 / C-peptide staining of dispersed islets); type: cell-based; details: incubation 72 hours; for replication of primary rat beta cells, agent alone: FIG. 12, FIG. 14
Method: About 1.5×10^4 beta cells were inspected per experiment and the percentage of double positive cells was determined. The number of replicating beta cells is expressed relative to control cells maintained in 10% FCS (FIG. 9A). Prolactin treated cells served as a technical control. Identification of C-peptide and Ki67 double positive beta cells dispersed on adhesive slides was carried out by immunohistochemistry (FIG. 9B).
We investigated the growth promoting effects by monitoring the percentage of replicating beta cells in isolated rat islets. Replicating beta cells were identified by immunohistological staining of dispersed islets with antibodies against C-peptide, a fragment of proinsulin, and the cell division marker Ki-67.
Islets of Langerhans are isolated by standard Liberase digestion method from rat pancreata (Liberase™ Cl enzyme blend BMB Cat. # 1814-435, ROCHE).
Following the culture period the islets are dispersed gently by titration in Ca^2+ and Mg^2+ free PBS. […] The adherent islet cells are fixed and stained by standard immunofluorescence techniques for C-peptide, a fragment of proinsulin and Ki-67 a marker of proliferating cells.
An Olympus microscope equipped with an automatic image acquisition device (Olympus) is used for counting of C-peptide positive beta cells. Proliferating C-peptide/Ki-67 double positive beta cells are counted manually. Thereby the fraction of proliferating beta cells can be determined.

Molecule: CC(=O)O/N=C1/C(=C2/C(=O)Nc3cc(Br)ccc32)Nc2ccccc21 [(2′Z,3′ E)-6-Bromoindirubin-3′-acetoxime]
- induction of Pax4 expression (in words) (Pax4): induction of Pax4 expression was also found

Molecule: O=C1Nc2cc(Br)ccc2/C1=C1/Nc2ccccc2/C1=N\O [(2′Z,3′E)-6-Bromoindirubin-3′-oxime]
- induction of Pax4 expression (in words) (Pax4): induction of Pax4 expression was also found

Molecule: O=C1Cc2c([nH]c3ccc([N+](=O)[O-])cc23)-c2ccccc2N1 [Alsterpaullone]
- induction of relative Pax4 expression compared to the control (Pax4; 20 μM): about 7 fold

Molecule: Cc1c[nH]c(-c2cnc(NCCNc3ccc(C#N)cn3)nc2-c2ccc(Cl)cc2Cl)n1 [CHIR99021]
- replication of primary rat beta cells, agent alone (primary rat beta cells): trigger beta cell replication; also recorded: promotes replication of primary rat beta cells

Molecule: COc1ccc(CNC(=O)Nc2ncc([N+](=O)[O-])s2)cc1 [GSK-3 inhibitor VIII, N-(4-Methoxybenzyl)-N′-(5-nitro-1,3-thiazol-2-yl)urea]
- induction of Pax4 expression (in words) (Pax4): induction of Pax4 expression was also found

Molecule: GIP: incretin GIP (gastrin inhibitory protein) (YAEGTFISDYSIAMDKIHQQDFVNWLLAQKGKKNDWKHNITQ; Gastric inhibitory polypeptide; UniProt P09681 52-93, looked up)
- replication of primary rat beta cells, agent alone (primary rat beta cells): trigger beta cell replication
- replication of primary rat beta cells, GIP combined with GSK3 inhibitor CHIR99021 (primary rat beta cells; FIG. 14): cooperative effects

Molecule: NGF: nerve growth factor
- replication of primary rat beta cells, growth factor combined with GSK3 inhibitor 1-Azakenpaullone (primary rat beta cells; FIG. 12): potentiate the growth promoting effects
- replication of primary rat beta cells, agent alone (primary rat beta cells): not sufficient to trigger beta cell replication

Molecule: exendin-4
- replication of primary rat beta cells, agent alone (primary rat beta cells): trigger beta cell replication

B1: activin AB: protein related to activin A (protein, UniProt P08476 311-426; P09529 293-407, looked up)
Inhibin beta A chain: GLECDGKVNICCKKQFFVSFKDIGWNDWIIAPSGYHANYCEGECPSHIAGTSGSSLSFHSTVINHYRMRGHSPFANLKSCCVPTKLRPMSMLYYDDGQNIIKKDIQNMIVEECGCS
Inhibin beta B chain: GLECDGRTNLCCRQQFFIDFRLIGWNDWIIAPTGYYGNYCEGSCPAYLAGVPGSASSFHTAVVNQYRMRGLNPGTVNSCCIPTKLSTMSMLYFDDEYNIVKRDVPNMIVEECGCA
- stimulation of Pax4 transcription relative to activin A (in words) (Pax4): almost equally potent in stimulating Pax4 transcription as activin A

B2: BMP 4: TGF-beta family member (protein, UniProt P12644 293-408, looked up)
Bone morphogenetic protein 4: SPKHHSQRARKKNKNCRRHSLYVDFSDVGWNDWIVAPPGYQAFYCHGDCPFPLADHLNSTNHAIVQTLVNSVNSSIPKACCVPTELSAISMLYLDEYDKVVLKNYQEMVVEGCGCR
- stimulation of Pax4 transcription relative to activin A (in words) (Pax4): hardly induced Pax4 gene transcription

B3: BMP 7: TGF-beta family member (protein, UniProt P18075 293-431, looked up)
Bone morphogenetic protein 7: STGSKQRSQNRSKTPKNQEALRMANVAENSSSDQRQACKKHELYVSFRDLGWQDWIIAPEGYAAYYCEGECAFPLNSYMNATNHAIVQTLVHFINPETVPKPCCAPTQLNAISVLYFDDSSNVILKKYRNMVVRACGCH
- stimulation of Pax4 transcription relative to activin A (in words) (Pax4): hardly induced Pax4 gene transcription

B4: betacellulin: growth factor (protein, UniProt P35070 32-111, looked up)
Betacellulin: DGNSTRSPETNGLLCGDPEENCAATTTQSKRKGHFSRCPKQYKHYCIKGRCRFVVAEQTPSCVCDEGYIGARCERVDLFY
modifications: Betacellulin
notes: growth factor
- replication of primary rat beta cells, agent alone (primary rat beta cells): does not influence replication of primary rat beta cells
